According to patent US20110158944A1, “BRAF BIOMARKERS” (priority 2007, published 2011):
Read-outs that look alike come from different tables or passages of the source.

Tests used:
Format in all cases: cell-based
[1] = test system: 8505C; assay: Cell proliferation IC50 (Cell Titer Glo); details: Homo sapiens, 96 h, read-out: IC50 cell proliferation
Procedure: (§1) IC50 Cell proliferation measurements. Cell proliferation was assessed in the 41 tumor cell lines set forth in Table 2 after 4 days of continuous exposure to either the ERK1/2 inhibitor, compound a or the MEK inhibitor compound b (PD0325901) using Promega Cell Titer Glo reagent (Promega Corp, Madison, Wis.). Promega's CellTiter-Glo™ Luminescent Cell Viability Assay is a sensitive method for assaying cell proliferation using a stable form of luciferase to measure ATP as an indicator of viable cells. This reagent allows a homogeneous method of determining cell number by quantitation of ATP. The luciferase luminescent signal produced is proportional to the number of viable cells present in culture.
(§2) A 1000× compound dose response curve, containing 8 dilutions of each compound, was prepared on a 96-well plate. Compounds were diluted in 100% DMSO to the following (1000×) concentrations: compound b: 1000 μM, 333 μM, 111 μM, 37 μM, 12 μM, 4.1 μM, 1.4 μM and 0.5 μM; compound a: 3000 μM, 1000 μM, 333 μM, 111 μM, 37 μM, 12 μM, 4.1 μM and 1.4 μM. This compound source plate was sealed and kept frozen between uses.
(§3) Cells were grown in RPMI 1640 medium supplemented with 10% Fetal Bovine Serum, 2 mM Glutamine and non-essential amino acids or DMEM/F12 Media containing the same supplements. On day zero, cells were trypsinized, counted and plated into wells of a 96-well Wallac TC Isoplate (Perkin-Elmer Wallac, Gaithersburg, Md.) at a density of 1500-2000 cells per well in 50 μl of complete media. An additional 6-8 replicate well of the cells at the same density were plated on a separate Wallac TC Isoplate. This plate was developed on day 1 to determine the cell-growth baseline.
(§4) On day 1 of treatment, compound was diluted to 2× in media and immediately added to the cells as follows: one ml of media was added to each well of a deep-well 96-well plate and 2 μl of 1000× compound was added with mixing to make 2× compound in media. 50 μl of the media containing 2× compound was added to the cell plates in duplicate points so the final concentrations for each well were as outlined in Table 1. The plates were then returned to a 37° C. incubator and left undisturbed for 4 days. The day 1 (baseline) plates were developed by first adding 50 μl media (without compound) to bring the volume in each well to 100 μl, then adding 100 μl of Cell Titer Glo reagent (as below).
(§5) After four days of treatment, the plates were developed with Cell Titer Glo (CTG) reagent (Promega Corp.; Madison, Wis.). Reagent was reconstituted as described in the product insert. 100 μl of reagent was added to all treatment and control wells and the plates were gently shaken for 5 minutes then incubated an additional 5 minutes before reading in an Analyst AD (Molecular Devices Corporation; Sunnyvale, Calif.) using the Luminescence settings.
(§6) Data was analyzed in Excel using XLfit 4.2, fit model #205 (Dose Response One Site)

[2] = test system: A375; assay: Cell proliferation IC50 (Cell Titer Glo); details: Homo sapiens, A-375, 96 h, read-out: IC50 cell proliferation
Procedure: as §1, §2, §3, §4, §5, §6

[3] = test system: BHT 101; assay: Cell proliferation IC50 (Cell Titer Glo); details: Homo sapiens, read-out: IC50 cell proliferation
Procedure: as §1, §2, §3, §4, §5, §6

[4] = test system: BxPc-3; assay: Cell proliferation IC50 (Cell Titer Glo); details: Homo sapiens, read-out: IC50 cell proliferation
Procedure: as §1, §2, §3, §4, §5, §6

[5] = test system: Colo-205; assay: Cell proliferation IC50 (Cell Titer Glo); details: Homo sapiens, read-out: IC50 cell proliferation
Procedure: as §1, §2, §3, §4, §5, §6

[6] = test system: ES-2; assay: Cell proliferation IC50 (Cell Titer Glo); details: Homo sapiens, read-out: IC50 cell proliferation
Procedure: as §1, §2, §3, §4, §5, §6

[7] = test system: Hs695T; assay: Cell proliferation IC50 (Cell Titer Glo); details: Homo sapiens, Hs 695T, 96 h, read-out: IC50 cell proliferation
Procedure: as §1, §2, §3, §4, §5, §6

[8] = test system: IGROV-1; assay: Cell proliferation IC50 (Cell Titer Glo); details: Homo sapiens, read-out: IC50 cell proliferation
Procedure: as §1, §2, §3, §4, §5, §6

[9] = test system: MB-453; assay: Cell proliferation IC50 (Cell Titer Glo); details: Homo sapiens, 96 h, read-out: IC50 cell proliferation
Procedure: as §1, §2, §3, §4, §5, §6

[10] = test system: SK-Mel-5; assay: Cell proliferation IC50 (Cell Titer Glo); details: Homo sapiens, read-out: IC50 cell proliferation
Procedure: as §1, §2, §3, §4, §5, §6

[11] = test system: SNU-16; assay: Cell proliferation IC50 (Cell Titer Glo); details: Homo sapiens, read-out: IC50 cell proliferation
Procedure: as §1, §2, §3, §4, §5, §6

[12] = test system: TT; assay: Cell proliferation IC50 (Cell Titer Glo); details: Homo sapiens, 96 h, Thyroid, BRAF V600V Wild type, 4 days continuous exposure
Procedure: as §1, §2, §3, §4, §5, §6

[13] = test system: UACC-62; assay: Cell proliferation IC50 (Cell Titer Glo); details: Homo sapiens, read-out: IC50 cell proliferation
Procedure: as §1, §2, §3, §4, §5, §6

[14] = test system: WiDr; assay: Cell proliferation IC50 (Cell Titer Glo); details: Homo sapiens, 96 h, read-out: IC50 cell proliferation
Procedure: as §1, §2, §3, §4, §5, §6

[15] = test system: Cell lines with either the heterozygote V600E BRAF mutation or wild type BRAF genotype; assay: Cell proliferation IC50 (Cell Titer Glo), summary by genotype; details: Homo sapiens, read-out: IC50 cell proliferation
Procedure: as §1, §2, §3
as §4, with “The day 1 (baseline) plates were developed by first adding 50 μl media (without compound) to bring the volume in each well to 100 μl, then adding 100 μl of Cell Titer Glo reagent (as below).” left out
as §5, with “Reagent was reconstituted as described in the product insert.” left out
as §6

[16] = test system: V600E BRAF homozygous genotype cell lines; assay: as above; details: Homo sapiens, read-out: IC50 cell proliferation
Procedure: as §1, §2, §3
as §4, with “The day 1 (baseline) plates were developed by first adding 50 μl media (without compound) to bring the volume in each well to 100 μl, then adding 100 μl of Cell Titer Glo reagent (as below).” left out
as §5, with “Reagent was reconstituted as described in the product insert.” left out
as §6

Work on `O=C(Nc1ccc2[nH]nc(-c3ccncc3)c2c1)C1CCN(CC(=O)N2CCN(c3ccc(-c4ncccn4)cc3)CC2)C1` (centres unmarked) [cpd. a] yielded an IC50 ([1]; Thyroid, BRAF V600E Homozygous, 4 days continuous exposure) of 50 nM, an IC50 ([2]; A375, Melanoma, BRAF V600E Homozygous, 4 days continuous exposure) of 75 nM and an IC50 ([3]; 96 h, BHT 101, Thyroid, BRAF V600E Heterozygous, 4 days continuous exposure) of 300 nM. It also gave an IC50 ([4]; 96 h, BxPc-3, Pancreas, BRAF V600V Wild type, 4 days continuous exposure) of 184 nM, an IC50 ([5]; 96 h, Colo-205, Colon, BRAF V600E Homozygous, 4 days continuous exposure) of 36 nM and an IC50 ([6]; 96 h, ES-2, Ovarian, BRAF V600E Heterozygous, 4 days continuous exposure) of 2660 nM. It also gave an IC50 ([7]; Hs695T, Melanoma, BRAF V600E Heterozygous, 4 days continuous exposure) of 165 nM, an IC50 ([8]; 96 h, IGROV-1, Ovarian, BRAF V600V Wild type, 4 days continuous exposure) of 146 nM and an IC50 ([9]; MB-453, Breast, BRAF V600E Heterozygous, 4 days continuous exposure) of 672 nM. It also gave an IC50 ([10]; 96 h, SK-Mel-5, Melanoma, BRAF V600E Heterozygous, 4 days continuous exposure) of 66 nM, an IC50 ([11]; 96 h, SNU-16, Gastric, BRAF V600V Wild type, 4 days continuous exposure) of over 3000 nM and an IC50 [12] of 406 nM. It also gave an IC50 ([13]; 96 h, UACC-62, Melanoma, BRAF V600E Homozygous, 4 days continuous exposure) of 30 nM, an IC50 ([14]; Colon, BRAF V600E Heterozygous, 4 days continuous exposure) of 39 nM and an IC50 ([15]; 25 of the 32 cell lines tested (heterozygote V600E or wild type BRAF)) of over 100 nM. For the same compound, the IC50 ([16]; nine of the nine V600E BRAF homozygous genotype cell lines tested) was under 100 nM.
`O=C(NOC[C@H](O)CO)c1ccc(F)c(F)c1Nc1ccc(I)cc1F` [cpd. b, PD0325901] was tested, and the IC50 [1] was 10 nM, the IC50 [2] was 5 nM and the IC50 ([3]; BHT-101, 96 h) was 10 nM. For the same compound, the IC50 ([4]; BXPC-3, 96 h) was 119 nM, the IC50 ([5]; COLO 205, 96 h) was 5 nM and the IC50 ([6]; ES-2, 96 h) was 1000 nM. It also gave an IC50 [7] of 29 nM, an IC50 ([8]; IGROV-1, 96 h) of 39 nM and an IC50 [9] of 1000 nM. It also gave an IC50 ([10]; SK-MEL-5, 96 h) of 8 nM, an IC50 ([11]; SNU-16, 96 h) of 1000 nM and an IC50 [12] of 255 nM. The IC50 ([13]; UACC-62, 96 h) was 5 nM, the IC50 [14] was 6 nM and the IC50 [15] was over 10 nM. The IC50 [16] was at most 10 nM.
